This experiment has as its target T1, 5-hydroxytryptamine receptor 2C (Homo sapiens, UniProt P28335).
T1 sequence (P28335 whole entry): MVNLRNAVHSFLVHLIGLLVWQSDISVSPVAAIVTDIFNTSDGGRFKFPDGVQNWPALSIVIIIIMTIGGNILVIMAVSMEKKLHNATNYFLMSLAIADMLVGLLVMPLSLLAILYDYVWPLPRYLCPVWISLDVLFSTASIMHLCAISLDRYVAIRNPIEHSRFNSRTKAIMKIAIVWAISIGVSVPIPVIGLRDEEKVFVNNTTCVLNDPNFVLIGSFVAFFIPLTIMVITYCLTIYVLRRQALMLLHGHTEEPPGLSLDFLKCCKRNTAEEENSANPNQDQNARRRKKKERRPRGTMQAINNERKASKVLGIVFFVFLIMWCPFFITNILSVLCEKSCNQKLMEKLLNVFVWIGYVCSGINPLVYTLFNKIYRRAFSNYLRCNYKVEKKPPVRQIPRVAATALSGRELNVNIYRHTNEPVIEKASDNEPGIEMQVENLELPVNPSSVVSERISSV
The experiment can be described thus: Displacement of [3H]5-HT from human recombinant 5-HT2C receptor expressed in mouse 3T3 cells. (Loss of bound radioactivity is the signal in a displacement assay; it reports binding, not function.)

Drawing on BindingDB's records for doi:10.1021/jm5003759 (University of Copenhagen, 2014), this text covers Ki for one molecule.

By Ki is commonly meant the equilibrium dissociation constant of an inhibitor or competing ligand from its target.

For the molecule `CNc1cc(NS(=O)(=O)c2ccc(N)cc2)cc(NC)n1` [Ro-63-0563], the Ki was 2040 nM.
